Laboratory results published in ChEMBL document CHEMBL5335807, “Rational design, synthesis and biological evaluation of novel HIV-1 protease inhibitors containing 2-phenylacetamide derivatives as P2 ligands with potent activity against DRV-Resistant HIV-1 variants” (Bioorg Med Chem Lett, 2024).

How the values were obtained:
[1] = system: Human immunodeficiency virus 1; test: Antiviral activity against HIV-1 NL4-3 assessed as inhibition of viral growth; format: functional, organism-based; settings: Human immunodeficiency virus 1, NL4-3
[2] = target: Human immunodeficiency virus type 1 protease (Human immunodeficiency virus 1, UniProt Q72874); test: Inhibition of HIV-1 protease by fluorescence resonance energy transfer analysis
[3] = Resistance index, ratio of EC50 for antiviral activity against DRV-resistant HIV-1 to EC50 for antiviral activity against wild type HIV-1 NL4-3; format: functional, Human immunodeficiency virus 1
[4] = system: Human immunodeficiency virus 1; test: Antiviral activity against DRV-resistant HIV-1 assessed as inhibition of viral growth by single-round infection assay; format: functional, organism-based; settings: Human immunodeficiency virus 1, DRV

SMILES: COc1ccc(S(=O)(=O)N(CC(C)C)C[C@@H](O)[C@H](Cc2ccccc2)NC(=O)Cc2cccc(O)c2)cn1
- EC50 [1]: 950 nM
- IC50 [2]: 1.2 nM
- Ratio EC50 [3]: 5.26
- EC50 [4]: 5020 nM

SMILES: COc1ccc(S(=O)(=O)N(CC(C)C)C[C@@H](O)[C@H](Cc2ccccc2)NC(=O)Cc2ccc(O)cc2)cn1
- IC50 [2]: 7.26 nM

SMILES: CSc1ccc(S(=O)(=O)N(CC(C)C)C[C@@H](O)[C@H](Cc2ccccc2)NC(=O)Cc2ccc(O)cc2)cc1
- IC50 [2]: 4.2 nM

SMILES: COc1ccc(S(=O)(=O)N(CC(C)C)C[C@@H](O)[C@H](Cc2ccccc2)NC(=O)Cc2cccc(O)c2)cc1
- EC50 [1]: 1050 nM
- IC50 [2]: 0.87 nM
- Ratio EC50 [3]: 8.43
- EC50 [4]: 8850 nM

SMILES: COc1cccc(CC(=O)N[C@@H](Cc2ccccc2)[C@H](O)CN(CC(C)C)S(=O)(=O)c2ccc(N)cc2)c1
- IC50 [2]: 35.1 nM

SMILES: CC(C)CN(C[C@@H](O)[C@H](Cc1ccccc1)NC(=O)Cc1ccc(O)c(O)c1)S(=O)(=O)c1ccc(N)cc1
- IC50 [2]: 9.46 nM

SMILES: COc1ccc(CC(=O)N[C@@H](Cc2ccccc2)[C@H](O)CN(CC(C)C)S(=O)(=O)c2ccc(SC)cc2)cc1O
- IC50 [2]: 9.28 nM

SMILES: CC(C)CN(C[C@@H](O)[C@H](Cc1ccccc1)NC(=O)Cc1cccc(O)c1)S(=O)(=O)c1ccc(N)cc1
- IC50 [2]: 5.55 nM

SMILES: COc1cc(CC(=O)N[C@@H](Cc2ccccc2)[C@H](O)CN(CC(C)C)S(=O)(=O)c2ccc(N)cc2)ccc1O
- IC50 [2]: 379 nM

SMILES: COc1ccc(S(=O)(=O)N(CC(C)C)C[C@@H](O)[C@H](Cc2ccccc2)NC(=O)Cc2ccc(O)c(O)c2)cn1
- IC50 [2]: 2.87 nM

SMILES: COc1ccc(S(=O)(=O)N(CC(C)C)C[C@@H](O)[C@H](Cc2ccccc2)NC(=O)Cc2ccc(OC)c(OC)c2)cn1
- IC50 [2]: 176 nM

SMILES: COc1ccc(CC(=O)N[C@@H](Cc2ccccc2)[C@H](O)CN(CC(C)C)S(=O)(=O)c2ccc(OC)nc2)cc1
- IC50 [2]: 51.8 nM

SMILES: COc1ccc(CC(=O)N[C@@H](Cc2ccccc2)[C@H](O)CN(CC(C)C)S(=O)(=O)c2ccc(SC)cc2)cc1
- IC50 [2]: 85.8 nM

SMILES: COc1cccc(CC(=O)N[C@@H](Cc2ccccc2)[C@H](O)CN(CC(C)C)S(=O)(=O)c2ccc(OC)nc2)c1
- IC50 [2]: 12.5 nM

SMILES: COc1ccc(CC(=O)N[C@@H](Cc2ccccc2)[C@H](O)CN(CC(C)C)S(=O)(=O)c2ccc(N)cc2)cc1
- IC50 [2]: 377 nM

SMILES: COc1ccc(S(=O)(=O)N(CC(C)C)C[C@@H](O)[C@H](Cc2ccccc2)NC(=O)Cc2ccc(O)c(OC)c2)cc1
- IC50 [2]: 50 nM

SMILES: COc1ccc(S(=O)(=O)N(CC(C)C)C[C@@H](O)[C@H](Cc2ccccc2)NC(=O)Cc2ccc(O)c(OC)c2)cn1
- IC50 [2]: 170 nM

SMILES: COc1ccc(S(=O)(=O)N(CC(C)C)C[C@@H](O)[C@H](Cc2ccccc2)NC(=O)Cc2ccc(O)c(O)c2)cc1
- EC50 [1]: 1860 nM
- IC50 [2]: 0.54 nM
- Ratio EC50 [3]: 12.5
- EC50 [4]: 23200 nM

SMILES: COc1ccc(S(=O)(=O)N(CC(C)C)C[C@@H](O)[C@H](Cc2ccccc2)NC(=O)Cc2ccc(OC)c(O)c2)cn1
- IC50 [2]: 13 nM

SMILES: COc1ccc(S(=O)(=O)N(CC(C)C)C[C@@H](O)[C@H](Cc2ccccc2)NC(=O)Cc2cccc(OC)c2)cc1
- IC50 [2]: 6.95 nM

SMILES: COc1ccc(CC(=O)N[C@@H](Cc2ccccc2)[C@H](O)CN(CC(C)C)S(=O)(=O)c2ccc(SC)cc2)cc1OC
- IC50 [2]: 171 nM

SMILES: COc1ccc(S(=O)(=O)N(CC(C)C)C[C@@H](O)[C@H](Cc2ccccc2)NC(=O)Cc2ccc(OC)c(OC)c2)cc1
- IC50 [2]: 85 nM

SMILES: CSc1ccc(S(=O)(=O)N(CC(C)C)C[C@@H](O)[C@H](Cc2ccccc2)NC(=O)Cc2cccc(O)c2)cc1
- EC50 [1]: 940 nM
- IC50 [2]: 2.18 nM
- Ratio EC50 [3]: 2.51
- EC50 [4]: 2360 nM

SMILES: COc1ccc(CC(=O)N[C@@H](Cc2ccccc2)[C@H](O)CN(CC(C)C)S(=O)(=O)c2ccc(OC)cc2)cc1
- IC50 [2]: 21 nM

SMILES: COc1cc(CC(=O)N[C@@H](Cc2ccccc2)[C@H](O)CN(CC(C)C)S(=O)(=O)c2ccc(SC)cc2)ccc1O
- IC50 [2]: 116 nM

SMILES: COc1cccc(CC(=O)N[C@@H](Cc2ccccc2)[C@H](O)CN(CC(C)C)S(=O)(=O)c2ccc(SC)cc2)c1
- IC50 [2]: 30.4 nM

SMILES: COc1ccc(CC(=O)N[C@@H](Cc2ccccc2)[C@H](O)CN(CC(C)C)S(=O)(=O)c2ccc(N)cc2)cc1O
- IC50 [2]: 27.5 nM

SMILES: CSc1ccc(S(=O)(=O)N(CC(C)C)C[C@@H](O)[C@H](Cc2ccccc2)NC(=O)Cc2ccc(O)c(O)c2)cc1
- IC50 [2]: 2.29 nM

SMILES: COc1ccc(S(=O)(=O)N(CC(C)C)C[C@@H](O)[C@H](Cc2ccccc2)NC(=O)Cc2ccc(O)cc2)cc1
- IC50 [2]: 2.22 nM

SMILES: CC(C)CN(C[C@@H](O)[C@H](Cc1ccccc1)NC(=O)Cc1ccc(O)cc1)S(=O)(=O)c1ccc(N)cc1
- IC50 [2]: 32 nM

SMILES: COc1ccc(CC(=O)N[C@@H](Cc2ccccc2)[C@H](O)CN(CC(C)C)S(=O)(=O)c2ccc(N)cc2)cc1OC
- IC50 [2]: 1020 nM

SMILES: COc1ccc(S(=O)(=O)N(CC(C)C)C[C@@H](O)[C@H](Cc2ccccc2)NC(=O)Cc2ccc(OC)c(O)c2)cc1
- IC50 [2]: 3.97 nM
